Data reported in ChEMBL document CHEMBL5052855, “Method for predicting sensitivity of cancer cell to gpx4 inhibitor” (2021).
Active and inactive are the calls of the source. The rule behind the calls is not given here.

Experiments:
SK-HEP1 = assay: Antitumor activity against human SK-HEP1 cells xenografted BALB/c nu mouse assessed as decrease in tumor volume at 100 mg/kg/day, po measured on the 18th day; type: functional, organism-based; conditions: time 18.0 day
[1] = Antiproliferative activity against ARID1A/1B proficient human OVISE cells after 7 days by Cell-Titer Glo assay; type: functional, cell-based; conditions: 168 h

Row | Compound | Activity (SK-HEP1) | IC50 [1] [nM]
1 | Cc1onc(C(=O)N2CCN(C(c3ccc(Cl)cc3)c3ccc(Cl)cc3)CC2)c1[N+](=O)[O-] | Active | –
2 | COC(=O)c1ccc([C@H]2c3[nH]c4ccccc4c3C[C@H](C(=O)OC)N2C(=O)CCl)cc1 | – | < 3
